Results on 82 compounds are retold here after PubChem BioAssay AID540258 (Broad Institute, 2011).

Active and inactive are the calls of the source.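 The calls were made as follows: active = fitted curve reaching 40% activation at or below the top valid dose tested; inconclusive = flat curve at 30 to 70% activation, or poor fit; inactive = the rest.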

This test deals with SK-MEL-5 TRPM1 promoter luciferase reporter, 24 h. The test can be described thus: MITF activators via TRPM1 promoter reporter, dose response, SK-MEL-5 cells, luciferase, cherry-pick samples (AID 540258).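 Also: potency for activators that raise TRPM1 promoter luciferase signal.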
For the compound `O=C(Nc1cccc(F)c1)NC1CCCCCCC1`, the AC40 is 6.52 µM.
Next, `COc1ccc(NC(=O)n2ncc3cc(Cl)ccc32)cc1OC`: 5.31 µM.
Next, `Cc1csc(NC(=O)Cc2c[nH]c3ccccc23)n1`: 27.3 µM; `Cc1ccsc1C(=O)OCc1nnc(-c2ccccc2)o1`: 7.44 µM; `CCN1CCN(c2ccc(NC(=O)c3cccc(F)c3)cc2Cl)CC1`: 3.08 µM.
For the compound `Cc1ccc(N(C)/N=C/c2ccc(Cl)cc2Cl)nn1`, the AC40 was 34.2 µM.
In the case of `Cc1ccc2c(c1N)C(=O)c1ccccc1C2=O` it was 3.96 µM.
Consider `Brc1ccc(OCc2cn3ccccc3n2)cc1`, for which the AC40 is 0.592 µM.
Consider `O=C(Nc1ccccc1)c1ccc(-c2ccccc2)s1`, for which the AC40 is 0.95 µM.
With `COc1ccc(-c2cn(CC3CCCCC3)nn2)cc1`, the AC40 was 3.61 µM.
In the case of `CCN(N=O)c1ccc(C=C2C=Cc3ccccc32)cc1` it was 0.238 µM; in that of `Cc1ccc2c(CN3CCC(C)CC3)cc(=O)oc2c1C`, 8.33 µM; in that of `Cc1nc(SCc2ccccc2)nc2c1CCC2`, 2.58 µM.
For `CN(CCC#N)C(=O)c1cc2c(s1)-c1ccccc1SC2`, the AC40 was 3.23 µM.
In the case of `c1ccc2oc(CCc3nc4ccccc4o3)nc2c1` it was > 35 µM (inactive).
For `O=C(CCCc1ccccc1)c1ccccc1`, the AC40 is 0.326 µM.
As to `Cc1ccc(NC(=O)C(=O)NCc2ccccn2)cc1`, the AC40 is 16.4 µM.
As for `Cc1ccsc1/C=N/NC(=O)Nc1ccccc1`, the AC40 is 1.07 µM.
For `COc1cc(CNCc2ccccn2)ccc1OCc1ccc(Cl)c(Cl)c1`, the AC40 is 9.74 µM.
Take `COc1ccc(C(=O)NCCn2ccc3ccccc32)cc1`: the AC40 is 1.66 µM.
Take `CC(=O)NCCC1CCCCN1C(=O)c1cc(COc2cc(C)ccc2C)on1` (configuration not stated): the AC40 was 3.2 µM.
On to `Cc1cccc(-c2noc(Cc3ccccc3)n2)c1`, for which the AC40 was 2.93 µM.
Next, `CCCCN1CCc2c([nH]c3c(C)cccc23)C1=O`: > 35 µM (inactive); `Clc1ccc(N/N=C/c2cccnc2)cc1`: 9.36 µM.
In the case of `O=c1c(-c2ccc(O)cc2)coc2cc(O)cc(O)c12` it was 4.48 µM.
Take `CCCCNc1ccc2c(c1)C1CC2CCN1C(=O)OCc1ccccc1` (configuration not stated): the AC40 is 3.32 µM.
Next, `Cc1nnc(NC(=O)c2ccc(N3CCCC3=O)cc2)s1`: > 35 µM (inactive); `O=C(Nc1ccccc1O)c1cc2cc(Br)ccc2oc1=O`: 2.18 µM; `C=CCn1cnc2c(nnn2-c2ccc(C)c(C)c2)c1=O`: 11.9 µM.
In the case of `COC(=O)c1c(C)[nH]c(/C=N/Nc2ccccc2)c1C` it was > 35 µM (inactive); in that of `Cc1ccc(-n2nnc(-c3ccnc4ccccc34)n2)cc1`, 3.49 µM.
In the case of `COc1cccc(C(=O)Nc2ccc(NC(=O)C3CC3)cn2)c1` it was 3.48 µM; in that of `O=C(NCCC1=CCCCC1)NC12CC3CC(CC(C3)C1)C2`, 0.703 µM.
With `CCCC(=O)Nc1ccc(C#Cc2ccccc2)cc1`, the AC40 was 1.63 µM.
Next, `O=C(Nc1ccc(NC(=O)c2ccccc2F)cc1)c1cccs1`: 4.26 µM; `O=C(N/N=C/c1ccsc1)c1ccc2c(c1)OCO2`: 3.33 µM; `C/C(=N/OC(=O)CC(C)C)c1cc(-c2ccc(Cl)cc2)no1`: 2.65 µM.
As to `c1ccc2c(Nc3nnc(-c4ccncc4)s3)cccc2c1`, the AC40 is 4.9 µM.
As to `O=C(Nc1ccc(N2CCCCC2)cc1)c1cncc(Br)c1`, the AC40 was 0.969 µM.
As to `CCS(=O)(=O)N1CCN(c2nc(-c3ccccc3)cs2)CC1`, the AC40 is 33.3 µM.
Next, `CCCSc1ccc(C(=O)Nc2ccc(F)cc2F)cn1`: 27.2 µM; `COc1ccc2cc(CCNC(=O)c3cccs3)c(=O)[nH]c2c1`: 1.95 µM; `c1ccc2cc(C3CCCCC3)ncc2c1`: 29.4 µM.
On to `O=C(N/N=C/c1ccccn1)c1c[nH]c2ccccc12`, for which the AC40 was 6.49 µM.
For the compound `COc1ccc2sc(NCc3ccccc3)nc2c1`, the AC40 was 1.98 µM.
Next, `COc1ccc(-c2cn3nc(C)c(C)nc3n2)cc1OC`: 5.89 µM; `O=C(NCc1ccc2c(c1)OCO2)Nc1cccc(Cl)c1`: 8.57 µM.
With `CC(C)(C)C(=O)c1cnc(Nc2ccccc2Cl)s1`, the AC40 was 0.832 µM.
For `O=C(Nc1ccccc1)Nc1ccc2nnsc2c1`, the AC40 was 13.1 µM.
On to `CN1C(=O)C2C=CC1C1C(=O)N(c3ccccc3)C(=O)C21` (configuration not stated), for which the AC40 is 1.89 µM.
In the case of `O=C(c1nnc(-c2ccc(Cl)cc2)o1)C1CCCC1` it was 10.3 µM; in that of `COC(=O)Cc1csc(Nc2ccccc2Cl)n1`, 6.3 µM.
In the case of `Cn1c(-c2ncc(F)cc2F)cc2onc(-c3c(F)cccc3Cl)c2c1=O` it was > 35 µM (inactive); in that of `c1ccc(-c2noc(CCC3CCCC3)n2)cc1`, 4.35 µM.
Regarding `Cc1ccc(C(=O)N(CCN2CCCCC2)CC2CCCN(C3CCCC3)C2)s1` (configuration not stated), the AC40 is 5.39 µM.
Next, `Cc1ccc(Nc2ncc3c(n2)CC(C)(C)CC3=O)cc1`: 0.65 µM; `c1ccc(-c2ccc3[nH]ccc3c2)cc1`: 14 µM; `CC(=O)c1cnc2nc(SCc3ccccc3)nn2c1C`: 2.29 µM.
As to `Clc1ccc(-c2cn3c(n2)CCC3)cc1`, the AC40 was > 35 µM (inactive).
For the compound `Nc1ccc2oc(-c3cccs3)nc2c1`, the AC40 is 4.75 µM.
In the case of `[O-]/[N+](=C\C=C\c1ccccc1)c1ccccc1` it was 1.68 µM; in that of `C=CCN=C1S/C(=C\c2ccc(N(C)C)cc2)C(=O)N1CC=C`, 21.5 µM; in that of `COC(=O)C(Cc1ccc(O)cc1)N1Cc2ccccc2C1=O` (configuration not stated), 5.9 µM.
As for `CN(CC(=O)Nc1ccccc1Br)C(=O)c1cc2c(s1)CCCCC2`, the AC40 is 3.4 µM.
Next, `COc1ccc(C(=O)c2c[nH]c3ccccc23)cc1`: 2.64 µM.
Next, `CCN(CC)C(=O)c1cc2sc3ccccc3c2s1`: 2.42 µM; `CCCCNc1c(-c2ccc(-c3cccc(Cl)c3)cc2)nc2ccccn12`: 5.54 µM; `Clc1ccc(-n2nnc(-c3ncc[nH]3)n2)cc1Cl`: 7.37 µM.
Take `Cc1ccc2cc(NC(=O)c3ccccc3C)ccc2n1`: the AC40 was 1.69 µM.
Regarding `Cc1ccc2c(Cl)c(C(=O)Nc3cccnc3)sc2c1`, the AC40 was 1.19 µM.
In the case of `CCc1ccc(NC(=O)c2ccc3nc(N)sc3c2)cc1` it was 5.39 µM.
Next, `Clc1ccccc1OCc1nnc(-c2ccccc2Br)o1`: 2.43 µM; `O=C(Cc1ccccc1)Nc1ccc2c(c1)OC1(CCCC1)O2`: 3.23 µM; `c1ccc(CCn2nnc3ccccc32)cc1`: 0.867 µM.
On to `CC(Cc1ccccc1)/[N+]([O-])=C\c1ccc(C(F)(F)F)cc1` (configuration not stated), for which the AC40 was 8.22 µM.
Next, `COc1ccc(OC)c(/C=N/N(C)c2ccccc2)c1`: 1.44 µM; `CC1CCN(c2oc(-c3ccccc3Cl)nc2C#N)CC1`: 10.9 µM.
In the case of `O=C(Nc1ccc2c(c1)CCC2)C1CCCN(c2ncccn2)C1` (configuration not stated) it was 3.54 µM; in that of `COc1ccc(NC(=O)c2ccc3c(c2)OCO3)cc1Cl`, 0.642 µM.
Next, `COc1ccc(-c2csc(N(C)C(=O)c3cccs3)n2)cc1`: 6.73 µM.
`O=C(Nc1ccccc1)O/N=C/c1ccc(F)cc1`: the AC40 is 0.883 µM.
Next, `COc1ccc(-c2cc(C(=O)Nc3ccccc3F)on2)cc1`: 2.53 µM.
